Molecules are shown by their SMILES. Counter-ions that a name gives are not always drawn.

Here are results for 11 compounds from patent US8912120B2, “Herbicidal compositions comprising 4-amino-3-chloro-5-fluoro-6-(4-chloro-2-fluoro-3-methoxyphenyl) pyridine-2-carboxylic acid or a derivative thereof and synthetic auxin herbicides” (Dow AgroSciences, LLC., priority 2012, dated 2014).

Experiment [1] has as its system CENMA. Nature of the experiment: Example V: postemergence herbicidal activity of mixtures in forage crops, CENMA. Type of experiment: in vivo, Centaurea maculosa (spotted knapweed). Particulars: alone, foliar, approximately 21 days. As to the method: (§1) Seeds or root cuttings of the desired test plant species were planted in Sun Gro MetroMix® 306 planting mixture, which typically has a pH of 6.0 to 6.8 and an organic matter content of about 30 percent, in plastic pots with a surface area of 126.6 square centimeters (cm^2). […] The plants were grown for 14-60 days in a greenhouse with an approximate 14 hour photoperiod which was maintained at approximately 28° C. during the day and 24° C. during the night.
(§2) Spray solutions of the second herbicide or experimental compound mixtures were prepared by adding the stock solutions to the appropriate amount of dilution solution to form 12 mL spray solution with active ingredients in two-way combinations.

The subject of experiment [2] is SINAR. The experiment is described as follows: Example V: postemergence herbicidal activity of mixtures in forage crops, SINAR. It counts as in vivo, Sinapis arvensis (wild mustard). To be noted: alone, foliar, approximately 21 days. As to the method:
as §1, §2

For experiment [3], the system named is BRSNN. Nature of the experiment: Example IV: postemergence foliar-applied herbicidal mixtures, cereal crops, BRSNN. To be noted: for BRSNN Ob (observed value): alone, foliar, 20-22 days. It counts as in vivo, Brassica napus (volunteer canola). Here is the method:
(§3) Seeds of the desired test plant species were planted in Sun Gro MetroMix 306 planting mixture, which typically has a pH of 6.0 to 6.8 and an organic matter content of about 30 percent, in plastic pots with a surface area of 103.2 square centimeters (cm^2). […] The plants were grown for 7-36 days in a greenhouse with an approximate 14 hour photoperiod which was maintained at about 18° C. during the day and 17° C. during the night.
(§4) Spray solutions of the second cereal herbicide and experimental compound mixtures were prepared by adding the stock solutions to the appropriate amount of dilution solution to form 12 mL spray solution with active ingredients in two- and three-way combinations.

The subject of experiment [4] is ECHOR. The experiment is described as follows: Example II: in-water applied herbicidal mixtures, transplanted paddy rice, ECHOR. Type of experiment: in vivo, Echinochloa oryzoides (early watergrass). As to the method:
(§5) The prepared mud was dispensed in 365 mL aliquots into 16-ounce (oz.) non-perforated plastic pots with a surface area of 86.59 square centimeters (cm^2) leaving a headspace of 3 centimeters (cm) in each pot Mud was allowed to dry overnight prior to planting or transplanting. Rice seeds were planted in Sun Gro MetroMix® 306 planting mixture, which typically has a pH of 6.0 to 6.8 and an organic matter content of about 30 percent, in plastic plug trays. Seedlings at the second or third leaf stage of growth were transplanted into 840 mL of mud contained in 32-oz. non-perforated plastic pots with a surface area of 86.59 cm^2 4 days prior to herbicide application. […] Nutrients were added as Osmocote® (19:6:12, N:P:K^+ minor nutrients) at 2 g per 16-oz. pot and 4 g per 32-oz. pot.
(§6) Applications were made by injecting with a pipetter appropriate amounts of the application solutions, individually and sequentially, into the aqueous layer of the paddy. Control plants were treated in the same manner with the solvent blank. Applications were made so that all treated plant material received the same concentrations of acetone and crop oil concentrate.

The test system of experiment [5] is LEFCH. The experiment is described as follows: Example II: in-water applied herbicidal mixtures, transplanted paddy rice, LEFCH. Type of experiment: in vivo, Leptochloa chinensis (Chinese sprangletop). As to the method: as §5, §6
In experiment [6] the test system is CASOB. The experiment is described as follows: Example V: postemergence herbicidal activity of mixtures in forage crops (greenhouse), CASOB. Type of experiment: in vivo, Cassia obtusifolia (sicklepod). To be noted: alone, 50 gae/ha, foliar, approximately 21 days. As to the method: as §1, §2
The test system of experiment [7] is CYPRO. The experiment is described as follows: Example II: in-water applied herbicidal mixtures, weed control in transplanted paddy rice (greenhouse), CYPRO. It counts as in vivo, Cyperus rotundus (purple nutsedge). To be noted: for Visual Weed Control (%) - 20 DAA CYPRO Obs / Visual Weed Control (%) - 22 DAA CYPRO Obs: in-water application; for Visual Weed Control (%) Obs: 20 DAA. Here is the method:
as §5, §6

The subject of experiment [8] is SCPMA. The experiment is described as follows: Example II: in-water applied herbicidal mixtures, transplanted paddy rice, SCPMA. It counts as in vivo. Particulars: for Visual Weed Control (%) Obs: 20 DAA. As to the method:
as §5, §6

In experiment [9] the test system is ECHCG. The experiment is described as follows: Example II: in-water applied herbicidal mixtures, transplanted paddy rice, ECHCG. Type of experiment: in vivo, Echinochloa crus-galli (barnyardgrass). To be noted: for Visual Weed Control (%) - 22 DAA ECHCG Obs: in-water application. As to the method:
as §5, §6

Experiment [10] deals with VIOTR. The experiment is described as follows: Example IV: postemergence foliar-applied herbicidal mixtures, cereal crops, VIOTR. Type of experiment: in vivo, Viola tricolor (wild pansy). To be noted: 140 gai/ha. As to the method:
as §3, §4

For experiment [11], the system named is POLCO. The experiment is described as follows: Example IV: postemergence foliar-applied herbicidal mixtures, cereal crops, POLCO. It counts as in vivo, Polygonum convolvulus (wild buckwheat). To be noted: alone, 140 gai/ha, foliar, 20-22 days. Here is the method:
as §3, §4

Experiment [12] relates to SCPJU. Nature of the experiment: Example II: in-water applied herbicidal mixtures, transplanted paddy rice, SCPJU. Type of experiment: in vivo, Schoenoplectus juncoides (Japanese bulrush). To be noted: 25 DAA. As to the method:
as §5, §6

Experiment [13] concerns TRFRE. The experiment is described as follows: Example V: postemergence herbicidal activity of mixtures in forage crops, TRFRE. It counts as in vivo, Trifolium repens (white clover). To be noted: alone, foliar, approximately 21 days. Here is the method: as §1, §2
Experiment [14] deals with IPOHE. The experiment is described as follows: Example I: postemergence foliar-applied herbicidal mixtures, direct seeded rice, IPOHE. It counts as in vivo, Ipomoea hederacea (ivyleaf morningglory).
Description: (§7) The soil matrix was contained in plastic pots with a volume of 1 quart and a surface area of 83.6 square centimeters (cm^2). […] The plants were grown for 8-22 days in a greenhouse with an approximate 14 h photoperiod which was maintained at about 29° C. during the day and 26° C. during the night. Nutrients (Peters Excel® 15-5-15 5-Ca 2-Mg and iron chelate) were applied in the irrigation solution as needed and water was added on a regular basis. Supplemental lighting was provided with overhead metal halide 1000-Watt lamps as necessary. The plants were employed for testing when they reached the first through fourth true leaf stage.
(§8) Treatments consisted of the acid or esters of 4-amino-3-chloro-5-fluoro-6-(4-chloro-2-fluoro-3-methoxy-phenyl)pyridine-2-carboxylic acid (Compound A), each formulated as an SC (suspension concentrate), and various herbicidal components alone and in combination. Forms of compound A were applied on an acid equivalent basis.
(§9) For treatments comprised of formulated compounds, measured amounts of compounds were placed individually in 25 mL glass vials and diluted in a volume of 1.25% (v/v) Agri-Dex® crop oil concentrated to obtain 12× stock solutions. […] Application solutions were prepared by adding an appropriate amount of each stock solution (e.g., 1 mL) and diluted to the appropriate final concentrations with the addition of 10 mL of an aqueous mixture of 1.25% (v/v) crop oil concentrate so that the final spray solutions contained 1.25+/−0.05% (v/v) crop oil concentrate.
(§10) All stock solutions and applications solutions were visually inspected for compound compatibility prior to application. Spray solutions were applied to the plant material with an overhead Mandel track sprayer equipped with a 8002E nozzles calibrated to deliver 187 L/ha over an application area of 0.503 m^2 at a spray height of 18 to 20 inches (46 to 50 cm) above average plant canopy height. Control plants were sprayed in the same manner with the solvent blank.
(§11) The treated plants and control plants were placed in a greenhouse as described above and watered by sub-irrigation to prevent wash-off of the test compounds. After approximately 3 weeks, the condition of the test plants as compared with that of the untreated plants was determined visually and scored on a scale of 0 to 100 percent where 0 corresponds to no injury or growth inhibition and 100 corresponds to complete kill.
(§12) Colby's equation was used to determine the herbicidal effects expected from the mixtures (Colby, S. R. 1967. Calculation of the synergistic and antagonistic response of herbicide combinations. Weeds 15:20-22).
(§13) The following equation was used to calculate the expected activity of mixtures containing two active ingredients, A and B: Expected=A+B−(A×B/100)
(§14) A=observed efficacy of active ingredient A at the same concentration as used in the mixture.
(§15) B=observed efficacy of active ingredient B at the same concentration as used in the mixture.
Experiment [15] relates to CYPIR. The experiment is described as follows: Example I: postemergence foliar-applied herbicidal mixtures, direct seeded rice, CYPIR. Type of experiment: in vivo, Cyperus iria (rice flatsedge).
Description: as §7, §8, §9, §10, §11, §12, §13, §14, §15
Experiment [16] concerns LEFCH. Nature of the experiment: Example I: postemergence foliar-applied herbicidal mixtures, direct seeded rice, LEFCH. Type of experiment: in vivo, Leptochloa chinensis (Chinese sprangletop).
Description: as §7, §8, §9, §10, §11, §12, §13, §14, §15
The subject of experiment [17] is ECHCG. The experiment is described as follows: Example I: postemergence foliar-applied herbicidal mixtures, direct seeded rice, ECHCG. Particulars: 16 gae/ha.
Description: as §7, §8, §9, §10, §11, §12, §13, §14, §15
Setting [18] is: 280 gai/ha, in-water application.
Where [19] appears, read: 240 gae/ha, in-water application.

For the compound `Nc1c(Cl)c(Cl)nc(C(=O)[O-])c1Cl.[K+]` [Picloram K^+ Salt], the “CENMA Obs (observed value)” value in experiment [1] (35 gae/ha) is 20%; in experiment [1] (70 gae/ha) it was 50%. Besides, the entries for the “SINAR Obs (observed value)” value in experiment [2] (35 gae/ha) and in experiment [2] (70 gae/ha) were 30% and 70%, respectively.

Take `Cc1cc(Cl)ccc1O[C@H](C)C(=O)O` [Mecoprop, (2R)-2-(4-chloro-2-methylphenoxy)propanoic acid]: in experiment [3] (200 gai/ha), the “BRSNN Ob (observed value)” value stood at 70%.

For `CCCCC(CC)COC(=O)COc1ccc(Cl)cc1C` (stereo not drawn) [MCPA EHE, 2-ethylhexyl 2-(4-chloro-2-methylphenoxy)acetate, reference compound], the “Visual Weed Control (%) - 19 DAA ECHOR Obs” value in experiment [4] (setting [18]) is 30%. Also, the “Visual Weed Control (%) Obs” value in [5] (19 DAA, 280 gai/ha) turned out to be 0%. In addition, the “Visual Weed Control (%) - 19 DAA LEFCH Obs” value in experiment [5] (setting [18]) is recorded as 0%.

`O=C(O)COc1ccc(Cl)cc1Cl` [2,4-D Choline Salt, 2-hydroxy-N,N,N-trimethylethanaminium 2-(2,4-dichlorophenoxy)acetate, reference compound]: the “CASOB Obs (observed value)” value in experiment [6] is listed as 3%. Besides, the “Visual Weed Control (%) - 20 DAA ECHOR Obs” value is 0% in [4] (setting [19]) and 20% in experiment [4] (480 gae/ha, in-water application). In addition, the “Visual Weed Control (%) - 20 DAA CYPRO Obs” value in experiment [7] (240 gae/ha) and in [7] (480 gae/ha) was 30% each time. The “Visual Weed Control (%) - 20 DAA SCPMA Obs” value in experiment [8] (setting [19]) came to 0%.

Consider `CCCCC(CC)COC(=O)COc1ccc(Cl)cc1Cl` (stereo not drawn) [2,4-D EHE, 2-ethylhexyl 2-(2,4-dichlorophenoxy)acetate, reference compound], for which the “Visual Weed Control (%) - 22 DAA ECHOR Obs” value was 0% in experiment [4] (140 gae/ha, in-water application) and 0% in experiment [4] (280 gae/ha, in-water application). Moreover, the “Visual Weed Control (%) - 22 DAA CYPRO Obs” value in experiment [7] (140 gae/ha) and in experiment [7] (280 gae/ha) was 0% each time. The “Visual Weed Control (%) - 22 DAA ECHCG Obs” value in experiment [9] (140 gae/ha) and in experiment [9] (280 gae/ha) was 0% throughout.

For `Cc1cc(Cl)ccc1OCC(=O)O` [MCPA, 2-(4-chloro-2-methylphenoxy)acetic acid], the “VIOTR Ob (observed value)” value in [10] (alone, foliar, 20-22 days) worked out at 40%. Also, in [3] (140 gai/ha), the “BRSNN Ob (observed value)” value is on record as 70%. For the same compound, the “POLCO Ob (observed value)” value in [11] is 0%.

For the compound `O=C(O)COc1nc(Cl)c(Cl)cc1Cl` [Triclopyr TEA Salt, 2-[(3,5,6-trichloro-2-pyridinyl)oxy]acetic acid compound with N,N-diethylethanamine, reference compound], the pest or weed control at 280 g/ha in experiment [4] (Echinochloa oryzoides, 456 h, 19 DAA, 280 gae/ha, read-out: Visual Weed Control (%) Obs) was found to be 35%. The pest or weed control at 70 g/ha in experiment [4] (Echinochloa oryzoides, 600 h, 25 DAA, 70 gae/ha, read-out: Visual Weed Control (%) Obs) was found to be 0%. Moreover, the pest or weed control at 140 g/ha in experiment [4] (Echinochloa oryzoides, 600 h, 25 DAA, 140 gae/ha, read-out: Visual Weed Control (%) Obs) turned out to be 0%. In addition, the “Visual Weed Control (%) Obs” value in experiment [9] (25 DAA, 70 gae/ha) worked out at 0%; in [9] (25 DAA, 140 gae/ha), 0%; in [5] (25 DAA, 70 gae/ha) it was 0%; in [5] (25 DAA, 140 gae/ha), 0%; in experiment [12] (70 gae/ha) it was 20%; in experiment [12] (140 gae/ha) it was 30%.

Take `Nc1nc(C2CC2)nc(C(=O)O)c1Cl` [Aminocyclopyrachlor, 6-amino-5-chloro-2-cyclopropyl-4-pyrimidinecarboxylic acid, reference compound]: the results for the “CENMA Obs (observed value)” value in [1] (8.75 gae/ha) and in experiment [1] (17.5 gae/ha) were 55% and 60%, respectively. The “SINAR Obs (observed value)” value was determined as 25% in [2] (8.75 gae/ha) and 45% in [2] (17.5 gae/ha). The “TRFRE Obs (observed value)” value in experiment [13] (8.75 gae/ha) was 45%; in experiment [13] (17.5 gae/ha) it was 55%.

For the compound `C[C@@H](Oc1ccc(Cl)cc1Cl)C(=O)O` [Dichlorprop-P, (2R)-2-(2,4-dichlorophenoxy)propanoic acid], the “Weed Control Ob” value in experiment [10] (after 20-22 days) is recorded as 27%; in experiment [3] (after 20-22 days, 140 gai/ha), 57%.

Take `COC(=O)c1nc(-c2ccc(Cl)c(OC)c2F)cc(N)c1Cl` [Halauxifen-Methyl Ester, methyl 4-amino-3-chloro-6-(4-chloro-2-fluoro-3-methoxyphenyl)picolinate, reference compound]: the “Visual Weed Control (%) - 20 DAA IPOHE Obs” value in experiment [14] (2.19 gae/ha) and in experiment [14] (4.38 gae/ha) was 0% each time. Moreover, in [4] (Echinochloa oryzoides, 480 h, 20 DAA, 4.38 gae/ha, read-out: Visual Weed Control (%) Obs), the pest or weed control at 4.38 g/ha amounted to 25%. Besides, the pest or weed control at 8.75 g/ha in experiment [4] (Echinochloa oryzoides, 480 h, 20 DAA, 8.75 gae/ha, read-out: Visual Weed Control (%) Obs) was 35%. In addition, the “Visual Weed Control (%) - 20 DAA CYPIR Obs” value in [15] (2.19 gae/ha) worked out at 25%; in experiment [15] (4.38 gae/ha), 70%. Further, the “Visual Weed Control (%) Obs” value in experiment [7] (4.38 gae/ha) is on record as 70%; in experiment [7] (8.75 gae/ha) it was 50%; in experiment [9] (20 DAA, 4.38 gae/ha) it was 50%; in experiment [9] (20 DAA, 8.75 gae/ha), 60%. For the same compound, the “Visual Weed Control (%) - 20 DAA LEFCH Obs” value in experiment [16] (2.19 gae/ha) was 0%; in experiment [16] (4.38 gae/ha) it was 10%.

Consider `CCCCOC(=O)c1nc(-c2ccc(Cl)c(OC)c2F)c(F)c(N)c1Cl` [Compound A n-Butyl Ester], for which the “Visual Weed Control (%) Obs” value is recorded as 80% in experiment [4] (19 DAA, 35 gae/ha); 43% in [5] (19 DAA, 35 gae/ha); 0% in experiment [8] (35 gae/ha); 0% in experiment [8] (70 gae/ha). For the same compound, the “Visual Weed Control (%) - 19 DAA ECHCG Obs” value in experiment [17] amounted to 65%.
